Laboratory results from patent US12091425B2 (AMGEN INC., priority 2016, dated 2024).

Assays:
[1] = tested on: OPM-2 human multiple myeloma cell line; assay: Cell Viability Assay (OPM-2 10 FBS); type: cell-based; conditions: OPM-2 cells, CellTiter-Glo
How it was run: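 OPM-2 myeloma cells, 3000/well in medium with 10% FBS, exposed to serially diluted compounds for 16 h at 37° C./5% CO2. Viability read by CellTiter-Glo luminescence; IC50 from 4-parameter logistic fit.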

[2] = biological target: T1, Mcl-1/Bim interaction, recombinant human Mcl-1 (171-327) (Homo sapiens, UniProt Q07820); assay: Cell free Mcl-1: Bim Affinity Assay (Mcl-1 HTRF); type: binding
T1 construct: made in house
How it was run: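 Displacement of biotinylated Bim 51-76 peptide is followed by TR-FRET. Incubation runs overnight. Duplicate points are fitted with a four-parameter sigmoid to yield IC50.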

[3] = Homo sapiens, OPM-2, 16 h, 16 h
[4] = cell free Mcl-1:Bim TR-FRET, recombinant human Mcl-1 (171-327)
[5] = TR-FRET, 0.1 nM Mcl-1 (171-327), 0.05 nM biotin-Bim (51-76)
[6] = Homo sapiens, OPM-2, 16 h, 16 h incubation

T1 sequence (Q07820 171-327): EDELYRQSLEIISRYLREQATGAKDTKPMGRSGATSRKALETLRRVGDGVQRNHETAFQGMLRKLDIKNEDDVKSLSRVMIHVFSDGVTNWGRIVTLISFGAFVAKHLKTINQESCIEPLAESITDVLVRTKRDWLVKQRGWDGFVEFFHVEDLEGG

| SMILES | IC50 [1, 3] [nM] | IC50 [2, 4] [nM] | IC50 [2, 5] [nM] | IC50 ([1]; 16 h) [nM] | other results |
| --- | --- | --- | --- | --- | --- |
| COC1CN(CCO[C@H]2/C=C/C[C@H](C)[C@@H](C)S(=O)(=O)NC(=O)c3ccc4c(c3)N(C[C@@H]3CC[C@H]32)C[C@@]2(CCCc3cc(Cl)ccc32)CO4)C1 [Example 525, (1S,3′R,6′R,7′S,8′E,11′S,12′R)-6-chloro-7′-(2-(3-methoxy-1-azetidinyl)ethoxy)-11′,12′-dimethyl-3,4-dihydro-2H,15′H-spiro[naphthalene-1,22′-[20]oxa[13]thia[1,14]diazatetracyclo[14.7.2.0^3,6.0^19,24]pentacosa [8,16,18,24]tetraen]-15′-one 13′,13′-dioxide 2,2,2-trifluoroacetic Acid] | 186 | 0.416 | – | – | – |
| COCCO[C@H]1/C=C\C[C@H](C)N(CCOC)S(=O)(=O)NC(=O)c2ccc3c(c2)N(C[C@@H]2CC[C@H]21)C[C@@]1(CCCc2cc(Cl)ccc21)CO3 (single isomer, unassigned) [Example 65] | 1170 | – | 2.38 | – | – |
| CCC1CCC=CC(OC2CCOC2=O)C2CCC2CN2CC3(CCCc4cc(Cl)ccc43)COc3ccc(cc32)C(=O)NS1(=O)=O (single isomer, unassigned) [Example 424] | 248 | – | 0.501 | – | – |
| CO[C@H]1/C=C/[C@@H](CO)C[C@H](C)S(=O)(=O)NC(=O)c2ccc3c(c2)N(C[C@@H]2CC[C@H]21)C[C@@]1(CCCc2cc(Cl)ccc21)CO3 (single isomer, unassigned) [Example 127] | – | – | 0.341 | 1850 | – |
| O=C1NS(=O)(=O)[C@@H]2CCCC[C@H]2C/C=C/[C@H](O)[C@@H]2CC[C@H]2CN2C[C@@]3(CCCc4cc(Cl)ccc43)COc3ccc1cc32 (single isomer, unassigned) [Example 331] | 284 | – | 0.248 | – | – |
| C[C@@H]1[C@@H](C)C/C=C/[C@H](OCCBr)[C@@H]2CC[C@H]2CN2C[C@@]3(CCCc4cc(Cl)ccc43)COc3ccc(cc32)C(=O)NS1(=O)=O [Example 14, (1S,3′R,6′R,7′S,8′E,11′S,12′R)-7′-(2-bromoethoxy)-6-chloro-11′,12′-dimethyl-3,4-dihydro-2H,15′H-spiro[naphthalene-1,22′-[20]oxa[13]thia[1,14]diazatetracyclo[14.7.2.0^3,6.0^19,24]pentacosa[8,16,18,24]tetraen]-15′-one 13′,13′-dioxide] | 1100 | – | 3.92 | – | – |
| O=C1NS(=O)(=O)CCC/C=C/[C@@H](O)[C@@H]2CC[C@H]2CN2C[C@@]3(CCCc4cc(Cl)ccc43)COc3ccc1cc32 [Example 952, (1S,3′R,6′R,7′R,8′E)-6-chloro-7′-hydroxy-3,4-dihydro-2H,15′H-spiro[naphthalene-1,22′-[20]oxa[13]thia[1,14]diazatetracyclo[14.7.2.0^3,6.0^19,24]pentacosa [8,16,18,24]tetraen]-15′-one 13′,13′-dioxide] | – | – | 1.28 | – | IC50 ([1]; Homo sapiens, 16 h incubation): 6380 nM |
| C[C@H]1C/C=C/[C@H](O)[C@@H]2CC[C@H]2CN2C[C@@]3(CCCc4cc(Cl)ccc43)COc3ccc(cc32)C(=O)NS(=O)(=O)N1C [Example 83, (1S,3′R,6′R,7′S,8′E,11′S)-6-chloro-7′-hydroxy-11′,12′-dimethyl-3,4-dihydro-2H,15′H-spiro[naphthalene-1,22′-[20]oxa[13]thia[1,12,14]triazatetracyclo[14.7.2.0^3,6.0^19,24]pentacosa[8,16,18,24]tetraen]-15′-one 13′,13′-dioxide] | 487 | – | 0.419 | – | – |
| COC(=O)CN(CC(=O)OC)[C@H]1/C=C/CC[C@@H](C)S(=O)(=O)NC(=O)c2ccc3c(c2)N(C[C@@H]2CC[C@H]21)C[C@@]1(CCCc2cc(Cl)ccc21)CO3 [Example 600, dimethyl 2,2′-(((1S,3′R,6′R,7′S,8′E,12′R)-6-chloro-12′-methyl-13′,13′-dioxido-15′-oxo-3,4-dihydro-2H-spiro[naphthalene-1,22′-[20]oxa[13]thia[1,14]diazatetracyclo[14.7.2.0^3,6.0^19,24]pentacosa [8,16,18,24]tetraen]-7′-yl)imino)diacetate-trifluoroacetic Acid] | 104 | 0.647 | – | – | – |
| O=C1NS(=O)(=O)[C@H](CC2CCOCC2)CC/C=C/[C@H](O)[C@@H]2CC[C@H]2CN2C[C@@]3(CCCc4cc(Cl)ccc43)COc3ccc1cc32 (single isomer, unassigned) [Example 186] | – | – | 7.91 | 4660 | – |
| O=C1NS(=O)(=O)[C@@H]2CCCC[C@H]2CCC[C@H](O)[C@@H]2CC[C@H]2CN2C[C@@]3(CCCc4cc(Cl)ccc43)COc3ccc1cc32 (single isomer, unassigned) [Example 333] | – | – | 0.96 | 3450 | – |
| CO[C@H]1/C=C/[C@H](O)[C@@H]2CC[C@H]2CN2C[C@@]3(CCCc4cc(Cl)ccc43)COc3ccc(cc32)C(=O)NS(=O)(=O)[C@@H](C)C1 (single isomer, unassigned) [Example 488] | – | 5.21 | – | 12900 | – |
| COC1C=CCCC(C(=O)N(C)C)S(=O)(=O)NC(=O)c2ccc3c(c2)N(CC2CCC21)CC1(CCCc2cc(Cl)ccc21)CO3 (single isomer, unassigned) [Example 453] | – | – | 6.73 | 21000 | – |
| CO[C@H]1/C=C/C[C@@H]2CN(C(C)=O)C[C@H]2S(=O)(=O)NC(=O)c2ccc3c(c2)N(C[C@@H]2CC[C@H]21)C[C@@]1(CCCc2cc(Cl)ccc21)CO3 (single isomer, unassigned) [Example 340] | – | – | 0.19 | 941 | – |
| C[C@H]1C/C=C/[C@H](O)[C@@H]2CC[C@H]2CN2C[C@@]3(CCCc4cc(Cl)ccc43)COc3ccc(cc32)C(=O)NS(=O)(=O)[C@@H]1c1ccccc1 (single isomer, unassigned) [Example 653] | – | 0.722 | – | 371 | – |
| C[C@@]12C/C=C/[C@H](O)[C@@H]3CC[C@H]3CN3C[C@@]4(CCCc5cc(Cl)ccc54)COc4ccc(cc43)C(=O)NS(=O)(=O)[C@H]1CCC2 (single isomer, unassigned) [Example 131] | – | – | 1.83 | 1820 | – |

More lines, main results first:

| IC50 [1, 3] [nM] | IC50 [2, 4] [nM] | IC50 [2, 5] [nM] | SMILES | IC50 ([1]; 16 h) [nM] | other results |
| --- | --- | --- | --- | --- | --- |
| 11500 | 15.8 | – | C=C1CCCC[C@@H](CC)S(=O)(=O)NC(=O)c2ccc3c(c2)N(C[C@@H]2CC[C@@H]12)C[C@@]1(CCCc2cc(Cl)ccc21)CO3 [Example 859, (1S,3′R,6′R,12′R)-6-chloro-12′-ethyl-7′-methylidene-3,4-dihydro-2H,15′H-spiro[naphthalene-1,22′-[20]oxa[13]thia[1,14]diazatetracyclo[14.7.2.0^3,6.0^19,24]pentacosa [16,18,24]trien]-15′-one 13′,13′-dioxide] | – | – |
| – | – | 0.487 | CC[C@@H]1CC/C=C/[C@H](OCC(=O)NCCO)[C@@H]2CC[C@H]2CN2C[C@@]3(CCCc4cc(Cl)ccc43)COc3ccc(cc32)C(=O)NS1(=O)=O [Example 996, 2-(((1S,3′R,6′R,7′S,8′E,12′R)-6-chloro-12′-ethyl-13′,13′-dioxido-15′-oxo-3,4-dihydro-2H-spiro[naphthalene-1,22′-[20]oxa[13]thia[1,14]diazatetracyclo[14.7.2.0^3,6.0^19,24]pentacosa [8,16,18,24]tetraen]-7′-yl)oxy)-N-(2-hydroxyethyl)acetamide] | – | IC50 [1, 6]: 8190 nM |
| 3550 | 9.57 | – | CC1C(C2CC2)CC=CC(O)C2CCC2CN2CC3(CCCc4cc(Cl)ccc43)COc3ccc(cc32)C(=O)NS1(=O)=O (single isomer, unassigned) [Example 677] | – | – |
| 170 | 0.543 | – | CC[C@@H]1[C@@H](C)C/C=C/[C@H](OCCOC)[C@@H]2CC[C@H]2CN2C[C@@]3(CCCc4cc(Cl)ccc43)COc3ccc(cc32)C(=O)NS1(=O)=O [Example 740, (1S,3′R,6′R,7′S,8′E,11′S,12′R)-6-chloro-12′-ethyl-7′-(2-methoxyethoxy)-11′-methyl-3,4-dihydro-2H,15′H-spiro[naphthalene-1,22′-[20]oxa[13]thia[1,14]diazatetracyclo[14.7.2.0^3,6.0^19,24]pentacosa [8,16,18,24]tetraen]-15′-one-13′, 13′-dioxide] | – | – |
| – | – | 0.497 | CO[C@H]1/C=C/[C@@H](C)C[C@@H](C)S(=O)(=O)NC(=O)c2ccc3c(c2)N(C[C@@H]2CC[C@H]21)C[C@@]1(CCCc2cc(Cl)ccc21)CO3 [Example 1019, (1S,3′R,6′R,7′S,8′E,10′S,12′R)-6-chloro-7′-methoxy-10′,12′-dimethyl-3,4-dihydro-2H,15′H-spiro[naphthalene-1,22′-[20]oxa[13]thia[1,14]diazatetracyclo[14.7.2.0^3,6.0^19,24]pentacosa [8,16,18,24]tetraen]-15′-one 13′,13′-dioxide] | – | IC50 [1, 6]: 475 nM |
| 3110 | 13.5 | – | CC[C@@H]1C/C=C/[C@H](OCC(=O)OC)[C@@H]2CC[C@H]2CN2C[C@@]3(CCCc4cc(Cl)ccc43)COc3ccc(cc32)C(=O)NS(=O)(=O)C1 [Example 741, methyl (((1S,3′R,6′R,7′S,8′E,11′R)-6-chloro-11′-ethyl-13′,13′-dioxido-15′-oxo-3,4-dihydro-2H-spiro[naphthalene-1,22′-[20]oxa[13]thia [1,14]diazatetracyclo[14.7.2.0^3,6.0^19,24]pentacosa[8,16,18,24]tetraen]-7′-yl)oxy)acetate] | – | – |
| – | – | 0.78 | C[C@H]1[C@H](C)/C=C/[C@H](O)[C@@H]2CC[C@H]2CN2C[C@@]3(CCCc4cc(Cl)ccc43)COc3ccc(cc32)C(=O)NS(=O)(=O)[C@@H]1C (single isomer, unassigned) [Example 1042] | – | IC50 [1, 6]: 393 nM |
